The record followed here is patent US12098144B2, “Piperazine indazole glucocorticoid receptor antagonists” (Corcept Therapeutics Incorporated, priority 2021, dated 2024).

The test has as its target T1, glucocorticoid receptor (Homo sapiens, UniProt P04150).
T1 construct: endogenous in cells; ATCC cat
T1 sequence (P04150 1-777): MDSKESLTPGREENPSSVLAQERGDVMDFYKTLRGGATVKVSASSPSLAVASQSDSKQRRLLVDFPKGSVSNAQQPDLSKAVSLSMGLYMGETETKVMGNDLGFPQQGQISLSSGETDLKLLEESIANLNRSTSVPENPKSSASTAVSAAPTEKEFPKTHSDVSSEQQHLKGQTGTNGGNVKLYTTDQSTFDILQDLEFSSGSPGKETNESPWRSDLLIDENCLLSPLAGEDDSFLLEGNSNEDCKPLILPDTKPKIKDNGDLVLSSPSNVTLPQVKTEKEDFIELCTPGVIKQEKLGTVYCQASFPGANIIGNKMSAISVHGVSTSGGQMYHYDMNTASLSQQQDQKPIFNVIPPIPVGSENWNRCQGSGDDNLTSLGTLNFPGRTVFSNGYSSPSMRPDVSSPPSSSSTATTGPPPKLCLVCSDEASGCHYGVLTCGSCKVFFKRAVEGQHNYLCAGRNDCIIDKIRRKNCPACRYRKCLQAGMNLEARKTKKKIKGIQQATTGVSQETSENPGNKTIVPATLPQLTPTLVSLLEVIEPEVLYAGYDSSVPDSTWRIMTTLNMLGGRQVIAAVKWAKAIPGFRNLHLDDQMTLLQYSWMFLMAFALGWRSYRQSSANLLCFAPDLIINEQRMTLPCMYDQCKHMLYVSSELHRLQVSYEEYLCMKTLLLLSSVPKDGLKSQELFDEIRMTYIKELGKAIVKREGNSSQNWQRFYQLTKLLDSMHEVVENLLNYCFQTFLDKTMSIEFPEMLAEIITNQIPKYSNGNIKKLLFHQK
The experiment in a line: Hep G2 TAT Ki: inhibition of dexamethasone-induced TAT in HepG2 cells (96 well). The class given is cell-based. The settings on record: challenge of 100 nM dexamethasone, IC50 converted to Ki by Cheng and Prusoff equation. The procedure, abridged: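 Cells lysed 15 min at 4 °C; TAT enzyme reaction 2 h at 37 °C, stopped with KOH, 30 min further at 37 °C. Inhibition fitted to 4-parameter logistic.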
With `Cc1cc2c(cnn2-c2ccc(F)cc2)cc1C1CN(S(=O)(=O)c2cnn(C)n2)CCN1CC(C)(C)C` (single isomer, unassigned) [Example 161, 1-(4-fluorophenyl)-6-methyl-5-(4-((2-methyl-2H-1,2,3-triazol-4-yl)sulfonyl)-1-neopentylpiperazin-2-yl)-1H-indazole], the inhibition constant Ki was 57 nM. The compound `Cc1cc2c(cnn2-c2ccc(F)cc2)cc1C1CN(S(=O)(=O)c2cnn(C)n2)CCN1CC(C)(C)C(F)(F)F` (single isomer, unassigned) [Example 163, 1-(4-fluorophenyl)-6-methyl-5-(4-((2-methyl-2H-1,2,3-triazol-4-yl)sulfonyl)-1-(3,3,3-trifluoro-2,2-dimethylpropyl)piperazin-2-yl)-1H-indazole] registered a Ki of 44 nM. With `Cc1cc2c(cnn2-c2ccc(F)c(C#N)c2)cc1C1CN(S(=O)(=O)c2cnn(C)n2)CCN1CCC(F)(F)F` (single isomer, unassigned) [Example 169, 2-fluoro-5-(6-methyl-5-(4-((2-methyl-2H-1,2,3-triazol-4-yl)sulfonyl)-1-(3,3,3-trifluoropropyl)piperazin-2-yl)-1H-indazol-1-yl)benzonitrile], affinity was put at a Ki of 66 nM.

Take `Cc1cc2c(cnn2-c2ccc(F)c(C#N)c2)cc1C1CN(S(=O)(=O)c2cnn(C)n2)CCN1CCC(F)(F)F` (single isomer, unassigned) [Example 170, 2-fluoro-5-(6-methyl-5-(4-((2-methyl-2H-1,2,3-triazol-4-yl)sulfonyl)-1-(3,3,3-trifluoropropyl)piperazin-2-yl)-1H-indazol-1-yl)benzonitrile]: the affinity, expressed as Ki, was 91 nM.

The compound `CO[C@H]1C[C@@H](CN2CCN(S(=O)(=O)c3csc(C)n3)CC2c2cc3cnn(-c4ccc(F)cc4)c3cc2C)C1` (single isomer, unassigned) [Example 171, 4-((3-(1-(4-fluorophenyl)-6-methyl-1H-indazol-5-yl)-4-((3-methoxycyclobutyl)methyl)piperazin-1-yl)sulfonyl)-2-methylthiazole] displayed a Ki of 24 nM.

As to `CC[C@@H](C)N1CCN(S(=O)(=O)c2cnn(C)n2)C[C@@H]1c1cc2cnn(-c3ccc(F)cc3)c2cc1C` (stereo in doubt) [Example 122, 5-(1-(sec-butyl)-4-((2-methyl-2H-1,2,3-triazol-4-yl)sulfonyl)piperazin-2-yl)-1-(4-fluorophenyl)-6-methyl-1H-indazole], the Ki was determined as 110 nM. `Cc1cc2c(cnn2-c2ccc(F)cc2)cc1C1CN(S(=O)(=O)c2cnn(C)n2)CCN1Cc1ccccc1` (stereo not shown) [Example 2, 5-(1-benzyl-4-((2-methyl-2H-1,2,3-triazol-4-yl)sulfonyl)piperazin-2-yl)-1-(4-fluorophenyl)-6-methyl-1H-indazole] returned a Ki of 81 nM. Compound `COc1ccc(CN2CCN(S(=O)(=O)c3cnn(C)n3)CC2c2cc3cnn(-c4ccc(F)cc4)c3cc2C)cc1` (stereo not shown) [Example 3, 1-(4-fluorophenyl)-5-(1-(4-methoxybenzyl)-4-((2-methyl-2H-1,2,3-triazol-4-yl)sulfonyl)piperazin-2-yl)-6-methyl-1H-indazole] displayed a Ki of 85 nM. With `Cc1cc2c(cnn2-c2ccc(F)cc2)cc1C1CN(S(=O)(=O)c2cnn(C)n2)CCN1CC(C)C` (stereo not shown) [Example 4, 1-(4-fluorophenyl)-5-(1-isobutyl-4-((2-methyl-2H-1,2,3-triazol-4-yl)sulfonyl)piperazin-2-yl)-6-methyl-1H-indazole], the affinity, expressed as Ki, was 41 nM. `Cc1cc2c(cnn2-c2ccc(F)cc2)cc1C1CN(S(=O)(=O)c2cnn(C)c2)CCN1CC(C)C` (stereo not shown) [Example 7, 1-(4-fluorophenyl)-5-(1-isobutyl-4-((1-methyl-1H-pyrazol-4-yl)sulfonyl)piperazin-2-yl)-6-methyl-1H-indazole] registered a Ki of 62 nM. `Cc1cc2c(cnn2-c2ccc(F)cc2)cc1C1CN(S(=O)(=O)C2CC2)CCN1CC(C)C` (stereo not shown) [Example 8, 5-(4-(cyclopropylsulfonyl)-1-isobutylpiperazin-2-yl)-1-(4-fluorophenyl)-6-methyl-1H-indazole] displayed a Ki of 66 nM.

The compound `COCCn1cc(S(=O)(=O)N2CCN(CC(C)C)C(c3cc4cnn(-c5ccc(F)cc5)c4cc3C)C2)cn1` (stereo not shown) [Example 9, 1-(4-fluorophenyl)-5-(1-isobutyl-4-((1-(2-methoxyethyl)-1H-pyrazol-4-yl)sulfonyl)piperazin-2-yl)-6-methyl-1H-indazole] came in with a Ki of 72 nM. Under `Cc1cc2c(cnn2-c2ccc(F)cc2)cc1C1CN(S(=O)(=O)c2cnn(C)n2)CCN1CC1CC1` (stereo not shown) [Example 12, 5-(1-(cyclopropylmethyl)-4-((2-methyl-2H-1,2,3-triazol-4-yl)sulfonyl)piperazin-2-yl)-1-(4-fluorophenyl)-6-methyl-1H-indazole] stands 68 nM. The compound `Cc1cc2c(cnn2-c2ccc(F)cc2)cc1C1CN(S(=O)(=O)c2cnn(C)n2)CCN1CC1CCOCC1` (stereo not shown) [Example 13, 1-(4-fluorophenyl)-6-methyl-5-(4-((2-methyl-2H-1,2,3-triazol-4-yl)sulfonyl)-1-((tetrahydro-2H-pyran-4-yl)methyl)piperazin-2-yl)-1H-indazole] showed a Ki of 97 nM.

Turning to `Cc1cc2c(cnn2-c2ccc(F)cc2)cc1C1CN(S(=O)(=O)c2cnn(C)n2)CCN1CC1CC1C` (stereo not shown) [Example 14, 1-(4-fluorophenyl)-6-methyl-5-(4-((2-methyl-2H-1,2,3-triazol-4-yl)sulfonyl)-1-((2-methylcyclopropyl)methyl)piperazin-2-yl)-1H-indazole], the affinity, expressed as Ki, was 62 nM. With `CCN1CCN(S(=O)(=O)c2cnn(C)n2)CC1c1cc2cnn(-c3ccc(F)cc3)c2cc1C` (stereo not shown) [Example 15, 5-(1-ethyl-4-((2-methyl-2H-1,2,3-triazol-4-yl)sulfonyl)piperazin-2-yl)-1-(4-fluorophenyl)-6-methyl-1H-indazole], the affinity, expressed as Ki, was 260 nM. `Cc1cc2c(cnn2-c2ccc(F)cc2)cc1C1CN(S(=O)(=O)c2cnn(C)n2)CCN1CC1COC1` (stereo not shown) [Example 16, 1-(4-fluorophenyl)-6-methyl-5-(4-((2-methyl-2H-1,2,3-triazol-4-yl)sulfonyl)-1-(oxetan-3-ylmethyl)piperazin-2-yl)-1H-indazole] gave a Ki of 520 nM. Compound `CC(C)=CCN1CCN(S(=O)(=O)c2cnn(C)n2)CC1c1cc2cnn(-c3ccc(F)cc3)c2cc1C` (stereo not shown) [Example 17, 1-(4-fluorophenyl)-6-methyl-5-(4-((2-methyl-2H-1,2,3-triazol-4-yl)sulfonyl)-1-(3-methylbut-2-en-1-yl)piperazin-2-yl)-1H-indazole] had a Ki of 110 nM. To `Cc1cc2c(cnn2-c2ccc(F)cc2)cc1C1CN(S(=O)(=O)c2cnn(C)n2)CCN1Cc1cccnc1` (stereo not shown) [Example 18, 1-(4-fluorophenyl)-6-methyl-5-(4-((2-methyl-2H-1,2,3-triazol-4-yl)sulfonyl)-1-(pyridin-3-ylmethyl)piperazin-2-yl)-1H-indazole] belongs 330 nM. `Cc1cc2c(cnn2-c2ccc(F)cc2)cc1C1CN(S(=O)(=O)c2cnn(C)n2)CCN1C(C)C` (stereo not shown) [Example 19, 1-(4-fluorophenyl)-5-(1-isopropyl-4-((2-methyl-2H-1,2,3-triazol-4-yl)sulfonyl)piperazin-2-yl)-6-methyl-1H-indazole] showed an inhibition constant (Ki) of 140 nM. Consider `COc1cc2c(cnn2-c2ccc(F)cc2)cc1C1CN(S(=O)(=O)c2cnn(C)n2)CCN1CC(C)C` (stereo not shown) [Example 22, 1-(4-fluorophenyl)-5-(1-isobutyl-4-((2-methyl-2H-1,2,3-triazol-4-yl)sulfonyl)piperazin-2-yl)-6-methoxy-1H-indazole], for which the affinity, expressed as Ki, was 57 nM. Under `CC(C)CN1CCN(S(=O)(=O)c2cnn(C)n2)CC1c1cc2cnn(-c3ccc(F)cc3)c2cc1Cl` (stereo not shown) [Example 24, 6-chloro-1-(4-fluorophenyl)-5-(1-isobutyl-4-((2-methyl-2H-1,2,3-triazol-4-yl)sulfonyl)piperazin-2-yl)-1H-indazole] stands 73 nM. Compound `Cc1cc2c(cnn2-c2ccc(F)cc2)cc1[C@@H]1CN(S(=O)(=O)c2cnn(C)n2)CCN1C[C@@H](C)C(F)(F)F` [Example 32, 1-(4-fluorophenyl)-6-methyl-5-((R)-4-((2-methyl-2H-1,2,3-triazol-4-yl)sulfonyl)-1-((R)-3,3,3-trifluoro-2-methylpropyl)piperazin-2-yl)-1H-indazole] yielded a Ki of 19 nM. As for `CC(=O)N1CCN(S(=O)(=O)c2cnn(C)n2)CC1c1cc2cnn(-c3ccc(F)cc3)c2cc1C` (stereo not shown) [Example 34, 1-(2-(1-(4-fluorophenyl)-6-methyl-1H-indazol-5-yl)-4-((2-methyl-2H-1,2,3-triazol-4-yl)sulfonyl)piperazin-1-yl)ethan-1-one], the Ki was 430 nM. The compound `Cc1cc2c(cnn2-c2ccc(F)cc2)cc1C1CN(S(=O)(=O)c2cnn(C)n2)CCN1C(=O)C(C)C` (stereo not shown) [Example 35, 1-(2-(1-(4-fluorophenyl)-6-methyl-1H-indazol-5-yl)-4-((2-methyl-2H-1,2,3-triazol-4-yl)sulfonyl)piperazin-1-yl)-2-methylpropan-1-one] returned an inhibition constant Ki of 770 nM.
